Patent publication US12473294B2, “Selective modulators of mutant LRRK2 proteolysis and associated methods of use” (Arvinas Operations, Inc., priority 2020, dated 2025)

Columns and labels:
G2019S LRRK2 = biological target: T1, G2019S LRRK2 (Homo sapiens, UniProt Q5S007, G2019S); test: LRRK2 degradation HiBit assay, G2019S LRRK2 tagged with a HiBit tag expressed in HEK293 cells; assay type: cell-based; conditions: 24 hours compound incubation; for Dmax: HEK293, HEK293 cells; for DC50: HEK293 cells
T1 construct: expressed in transfected cells; host or cells: HEK293 (ATCC CRL-1573)
T1 sequence (Q5S007 whole entry G2019S): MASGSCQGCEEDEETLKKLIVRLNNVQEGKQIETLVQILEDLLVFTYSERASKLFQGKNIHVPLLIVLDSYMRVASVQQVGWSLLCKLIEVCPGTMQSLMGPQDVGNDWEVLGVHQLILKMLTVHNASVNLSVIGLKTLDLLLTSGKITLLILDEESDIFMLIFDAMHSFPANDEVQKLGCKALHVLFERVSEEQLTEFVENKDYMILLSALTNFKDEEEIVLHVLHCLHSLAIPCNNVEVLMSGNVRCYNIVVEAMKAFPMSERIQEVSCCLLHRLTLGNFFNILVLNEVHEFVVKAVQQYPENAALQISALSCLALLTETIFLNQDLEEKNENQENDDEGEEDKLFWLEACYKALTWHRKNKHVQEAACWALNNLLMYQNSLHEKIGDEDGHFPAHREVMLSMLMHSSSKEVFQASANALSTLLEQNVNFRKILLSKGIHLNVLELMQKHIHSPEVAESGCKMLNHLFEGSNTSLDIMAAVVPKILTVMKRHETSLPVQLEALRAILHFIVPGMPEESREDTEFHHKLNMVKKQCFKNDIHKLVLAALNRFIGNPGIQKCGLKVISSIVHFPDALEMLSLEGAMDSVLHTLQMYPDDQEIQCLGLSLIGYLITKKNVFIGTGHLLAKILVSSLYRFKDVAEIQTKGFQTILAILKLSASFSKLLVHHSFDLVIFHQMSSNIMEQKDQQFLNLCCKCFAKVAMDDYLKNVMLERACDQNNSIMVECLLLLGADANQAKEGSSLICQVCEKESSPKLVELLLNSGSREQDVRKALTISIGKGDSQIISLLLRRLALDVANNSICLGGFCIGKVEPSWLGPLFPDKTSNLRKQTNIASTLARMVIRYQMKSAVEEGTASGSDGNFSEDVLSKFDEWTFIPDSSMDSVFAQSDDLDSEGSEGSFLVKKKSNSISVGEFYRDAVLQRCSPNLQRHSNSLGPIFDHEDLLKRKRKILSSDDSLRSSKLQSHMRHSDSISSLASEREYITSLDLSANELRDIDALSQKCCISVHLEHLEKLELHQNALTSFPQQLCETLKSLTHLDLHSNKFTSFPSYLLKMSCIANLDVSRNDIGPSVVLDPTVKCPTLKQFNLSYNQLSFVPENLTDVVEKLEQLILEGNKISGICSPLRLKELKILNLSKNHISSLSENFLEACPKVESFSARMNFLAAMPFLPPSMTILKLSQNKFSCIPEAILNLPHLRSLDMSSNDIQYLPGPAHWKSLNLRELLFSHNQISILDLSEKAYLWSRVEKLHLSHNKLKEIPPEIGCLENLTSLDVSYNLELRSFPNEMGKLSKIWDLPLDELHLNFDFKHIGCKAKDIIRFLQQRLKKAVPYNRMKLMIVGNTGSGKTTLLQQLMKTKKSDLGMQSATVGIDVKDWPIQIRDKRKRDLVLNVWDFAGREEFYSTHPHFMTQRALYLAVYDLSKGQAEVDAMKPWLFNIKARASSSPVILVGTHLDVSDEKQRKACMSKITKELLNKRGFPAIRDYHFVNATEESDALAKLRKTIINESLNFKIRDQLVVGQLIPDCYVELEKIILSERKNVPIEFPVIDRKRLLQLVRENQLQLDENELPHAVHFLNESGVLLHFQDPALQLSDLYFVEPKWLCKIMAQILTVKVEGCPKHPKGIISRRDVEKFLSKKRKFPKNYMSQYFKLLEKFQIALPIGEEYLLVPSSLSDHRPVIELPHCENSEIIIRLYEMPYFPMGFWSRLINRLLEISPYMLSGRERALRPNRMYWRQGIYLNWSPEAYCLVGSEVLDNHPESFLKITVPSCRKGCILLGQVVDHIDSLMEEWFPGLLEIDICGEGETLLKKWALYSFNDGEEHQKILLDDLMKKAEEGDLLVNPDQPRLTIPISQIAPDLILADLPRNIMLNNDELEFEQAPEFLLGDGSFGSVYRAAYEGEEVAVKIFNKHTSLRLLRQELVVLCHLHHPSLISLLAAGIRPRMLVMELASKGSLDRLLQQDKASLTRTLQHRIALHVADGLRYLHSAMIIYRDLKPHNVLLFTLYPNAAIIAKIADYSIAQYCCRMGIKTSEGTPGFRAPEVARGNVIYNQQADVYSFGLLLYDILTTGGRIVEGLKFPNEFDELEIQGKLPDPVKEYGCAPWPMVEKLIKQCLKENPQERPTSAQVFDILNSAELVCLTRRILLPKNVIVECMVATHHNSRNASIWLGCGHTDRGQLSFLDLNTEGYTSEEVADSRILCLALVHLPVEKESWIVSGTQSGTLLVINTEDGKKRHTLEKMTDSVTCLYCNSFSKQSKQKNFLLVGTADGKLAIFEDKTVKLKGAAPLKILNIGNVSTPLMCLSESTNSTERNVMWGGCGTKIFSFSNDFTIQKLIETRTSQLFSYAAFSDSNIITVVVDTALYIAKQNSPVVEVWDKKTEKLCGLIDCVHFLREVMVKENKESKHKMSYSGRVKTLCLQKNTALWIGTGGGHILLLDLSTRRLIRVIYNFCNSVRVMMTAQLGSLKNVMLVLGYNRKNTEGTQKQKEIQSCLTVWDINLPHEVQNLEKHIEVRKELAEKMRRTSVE
Description: (§1) The assay measures the degradation of wildtype and G2019S LRRK2 tagged with a HiBit tag on the C-terminus of the protein that was expressed from a mammalian expression vector, driven by the ubiquitin promoter in HEK293 cells. Each compound dose-response was repeated on three separate days, on three separate plates each day.
(§2) Plasmid Preparation. Transfection mixes were assembled as follows and incubated for 30 minutes at room temperature. In a 15 mL tube, 5.25 mL Opti-MEM (no additions) was mixed with 17 μL Firefly Luciferase plasmid at 1 μg/μL and 158 μL WT plasmid DNA at 1 μg/μL (175 μg total DNA) were mixed by flicking. In a new 15 mL tube, 5.25 mL OptiMEM was mixed with 17 μL Firefly Luciferase plasmid at 1 μg/μL and 158 μL G2019S plasmid DNA at 1 μg/μL (175 μg total DNA) were mixed by flicking. X-tremeGene HP was mixed thoroughly using a vortex. Next, 175 μL was added to each tube and flicked to mix. Both tubes were left to incubate for 30 minutes at room temperature.
While the transfection mixes were incubating, HEK293 cells acquired from ATCC (ATCC CRL-1573) were harvested with trypsin. Once cells are detached, the cells were resuspended in 12 mL OptiMEM+5% FBS and transferred to a 50 mL tube. The cells were mixed well and counted. Using OptiMEM+5% FBS, the cells were diluted in two 250 mL conical tubes at 0.71×10^6 cells/mL in 70 mL. One tube was labeled “WT” and the other “G2019S”. The WT and G2019S transfection mixes were added dropwise to the corresponding 250 mL tubes. The tubes were mixed first by pipetting then by swirling. The tubes were incubated at room temperature for at least 5 minutes.
(§3) Each tube was swirled before dispensing and after every three plates. Seventy microliters of cells were dispensed with WT or G2019S DNA to seven plates each. Three plates of each were tested with compound plate one (preparation described below) and three plates of each were tested with compound plate two (preparation described below). The first plate from each set served as a “prime” plate and was not used to test compounds. Each plate was incubated in the hood for 10 minutes before placing in the 37° C. incubator for 24 hours.
(§4) Preparation of Compound and Assay Plates. Two compound plates were made using 96 well polypropylene plates. Compounds were made up at 10 mM and were diluted to 1 mM in 30 μL. Each dose response curve included a well of DMSO, as a negative control and for normalization, and a well of 0.5 μM of Exemplary Compound 4 as a positive control. In addition to seven test compounds, each plate also included a dose response of Exemplary Compound 4. The compound plates were spun down along at 1200 rpm for 2 minutes.
(§5) The two compound plates were then mixed and 2 μL was diluted in intermediate plates having 248 μL of Opti-Mem in each well. Next, 10 μL diluted compounds from the intermediate plates were added to each test plate (three WT and three G2019S plates per compound plate for a total of 12 assay plates). The plates were incubated for 24 hours at 37° C.
(§6) All assay plates and all Nano-Glo Dual-Luciferase Reporter Assay System components (except for the DLR substrate) were equilibrated to room temperature. Next, the luciferase buffer was mixed with the lyophilized amber bottle until fully dissolved, and 75 μL of the luciferase mixture was added to each well of each assay plate. The assay plates were incubated for 10 minutes at room temperature with shaking for at least 5 minutes, and then read on a plate reader.
(§7) Developing Plates and Analyzing Data. One milliliter of DLR substrate and 1 mL LgBiT Protein were added to the Stop and Glo buffer, and 75 μL of the mixture was added to each well of each plate. Optically clear seals were added to each plate and each plate was incubated for 20 minutes with shaking for at least 10 minutes, and then read on a plate reader. […]

wildtype LRRK2 = biological target: T2, wildtype LRRK2 (Homo sapiens, UniProt Q5S007); test: LRRK2 degradation HiBit assay, wildtype LRRK2 tagged with a HiBit tag in HEK293 cells; assay type: cell-based; conditions: 24 hours compound incubation; for Dmax: read-out: ** WT Dmax (%); for DC50: read-out: *WT DC50
T2 construct: endogenous in cells; host or cells: HEK293 with HiBit knocked in at the 3' end of the endogenous LRRK2 gene, stably expressing firefly luciferase
T2 sequence (Q5S007 whole entry): as the sequence (Q5S007 whole entry G2019S) above, with S2019G counted along it
Description: as §1, with “repeated on two separate days,” for “repeated on three separate days,”
as §2
While the transfection mixes were incubating, HEK293 cells (acquired from ATCC; ATCC CRL-1573) were harvested with trypsin. Once cells are detached, the cells were resuspended in 12 mL OptiMEM+5% FBS and transferred to a 50 mL tube. The cells were mixed well and counted. Using OptiMEM+5% FBS, the cells were diluted in two 250 mL conical tubes at 0.71×10^6 cells/mL in 70 mL. One tube was labeled “WT” and the other “G2019S”. The WT and G2019S transfection mixes were added dropwise to the corresponding 250 mL tubes. The tubes were mixed first by pipetting then by swirling. The tubes were incubated at room temperature for at least 5 minutes.
as §3, §4, §5, §6, §7

Row | Dmax (G2019S LRRK2) | DC50 (G2019S LRRK2) | Dmax (wildtype LRRK2) | DC50 (wildtype LRRK2) | SMILES
1 | < 50% | 10 to 50 nM | < 50% | ≥ 100 nM | CC1=C(C(=O)Nc2ccc3[nH]nc(-c4ccnc(N5CCN(CCN6CCN(CC7CCN(c8ccc9c(c8)C(=O)N(C8CCC(=O)NC8=O)C9=O)CC7)CC6)[C@@H](C)C5)c4)c3c2)C(C)(C)n2nnnc2N1C (stereo partly drawn) [compound 30, N-(3-{2-[(3S)-4-{2-[4-({1-[2-(2,6-dioxopiperidin-3-yl)-1,3-dioxo-2,3-dihydro-1H-isoindol-5-yl]piperidin-4-yl}methyl)piperazin-1-yl]ethyl}-3-methylpiperazin-1-yl]pyridin-4-yl}-1H-indazol-5-yl)-4,5,7,7-tetramethyl-4H,7H-[1,2,3,4]tetrazolo[1,5-a]pyrimidine-6-carboxamide]
2 | < 50% | 50 to 100 nM | 50 to 70% | ≥ 100 nM | CC1=C(C(=O)Nc2ccc3[nH]nc(-c4ccnc(N5CCN(CCC6CCN(CC7CCN(c8ccc9c(c8)C(=O)N(C8CCC(=O)NC8=O)C9=O)CC7)CC6)CC5)c4)c3c2)[C@@H](C)n2nnnc2N1C (stereo partly drawn) [compound 14, (7R)-N-(3-(2-(4-(2-(1-((1-(2-(2,6-dioxopiperidin-3-yl)-1,3-dioxoisoindolin-5-yl)piperidin-4-yl)methyl)piperidin-4-yl)ethyl)piperazin-1-yl)pyridin-4-yl)-1H-indazol-5-yl)-4,5,7-trimethyl-4,7-dihydrotetrazolo[1,5-a]pyrimidine-6-carboxamide]
3 | < 50% | 10 to 50 nM |  | ≥ 100 nM | CC1=C(C(=O)Nc2ccc3[nH]nc(-c4ccnc(N5CCN(CCN6CCN(CC7CCN(c8ccc9c(c8)C(=O)N(C8CCC(=O)NC8=O)C9=O)CC7)CC6)CC5)c4)c3c2)C(C)(C)n2nnnc2N1C (stereo not drawn) [compound 35, N-{3-[2-(4-{2-[4-({1-[2-(2,6-dioxopiperidin-3-yl)-1,3-dioxo-2,3-dihydro-1H-isoindol-5-yl]piperidin-4-yl}methyl)piperazin-1-yl]ethyl}piperazin-1-yl)pyridin-4-yl]-1H-indazol-5-yl}-4,5,7,7-tetramethyl-4H,7H-[1,2,3,4]tetrazolo[1,5-a]pyrimidine-6-carboxamide]
4 | 50 to 70% | 50 to 100 nM | 50 to 70% | ≥ 100 nM | CC1=C(C(=O)Nc2ccc3[nH]nc(-c4ccnc(N5CCN(CC6CN(CC7CCN(c8ccc9c(c8)C(=O)N(C8CCC(=O)NC8=O)C9=O)CC7)C6)CC5)c4)c3c2)[C@@H](C)n2nnnc2N1C (stereo partly drawn) [compound 17, (7R)-N-(3-(2-(4-((1-((1-(2-(2,6-dioxopiperidin-3-yl)-1,3-dioxoisoindolin-5-yl)piperidin-4-yl)methyl)azetidin-3-yl)methyl)piperazin-1-yl)pyridin-4-yl)-1H-indazol-5-yl)-4,5,7-trimethyl-4,7-dihydrotetrazolo[1,5-a]pyrimidine-6-carboxamide]

The remaining lines, values behind:

Row | SMILES | Dmax (G2019S LRRK2) | DC50 (G2019S LRRK2) | Dmax (wildtype LRRK2) | DC50 (wildtype LRRK2)
5 | CC1=C(C(=O)Nc2ccc3[nH]nc(-c4ccnc(N5CCN(CCN6CCN(CC7CCN(c8ccc9c(c8)C(=O)N(C8CCC(=O)NC8=O)C9=O)CC7)CC6)[C@@H](C)C5)c4)c3c2)[C@H](C)n2nnnc2N1C (stereo partly drawn) [compound 28, (7S)-N-(3-{2-[(3S)-4-{2-[4-({1-[2-(2,6-dioxopiperidin-3-yl)-1,3-dioxo-2,3-dihydro-1H-isoindol-5-yl]piperidin-4-yl}methyl)piperazin-1-yl]ethyl}-3-methylpiperazin-1-yl]pyridin-4-yl}-1H-indazol-5-yl)-4,5,7-trimethyl-4H,7H-[1,2,3,4]tetrazolo[1,5-a]pyrimidine-6-carboxamide] | 50 to 70% | ≥ 100 nM |  | ≥ 100 nM
6 | CC1=C(C(=O)Nc2ccc3[nH]nc(-c4ccnc(N5CCN(CC(F)(F)C6CCN(CC7CCN(c8ccc9c(c8)C(=O)N(C8CCC(=O)NC8=O)C9=O)CC7)CC6)CC5)c4)c3c2)[C@@H](C)n2nnnc2N1C (stereo partly drawn) [compound 22, (7R)-N-(3-(2-(4-(2-(1-((1-(2-(2,6-dioxopiperidin-3-yl)-1,3-dioxoisoindolin-5-yl)piperidin-4-yl)methyl)piperidin-4-yl)-2,2-difluoroethyl)piperazin-1-yl)pyridin-4-yl)-1H-indazol-5-yl)-4,5,7-trimethyl-4,7-dihydrotetrazolo[1,5-a]pyrimidine-6-carboxamide] | 50 to 70% | < 10 nM | 50 to 70% | < 10 nM
7 | CC1=C(C(=O)Nc2ccc3[nH]nc(-c4ccnc(N5CCN(CC6CCN(CC7CCN(c8ccc9c(c8)C(=O)N(C8CCC(=O)NC8=O)C9=O)CC7)CC6)[C@@H](C)C5)c4)c3c2)Cn2nnnc2N1C (stereo partly drawn) [compound 10, N-(3-(2-((S)-4-((1-((1-(2-(2,6-dioxopiperidin-3-yl)-1,3-dioxoisoindolin-5-yl)piperidin-4-yl)methyl)piperidin-4-yl)methyl)-3-methylpiperazin-1-yl)pyridin-4-yl)-1H-indazol-5-yl)-4,5-dimethyl-4,7-dihydrotetrazolo[1,5-a]pyrimidine-6-carboxamide] | 50 to 70% | < 10 nM | 50 to 70% | 10 to 50 nM
8 | CC1=C(C(=O)Nc2ccc3[nH]nc(-c4ccnc(N5CCN(CC6CCN(CC7CCN(c8ccc9c(c8)C(=O)N(C8CCC(=O)NC8=O)C9=O)CC7)CC6)CC5)c4)c3c2)Cn2nnnc2N1C (stereo not drawn) [compound 13, N-(3-(2-(4-((1-((1-(2-(2,6-dioxopiperidin-3-yl)-1,3-dioxoisoindolin-5-yl)piperidin-4-yl)methyl)piperidin-4-yl)methyl)piperazin-1-yl)pyridin-4-yl)-1H-indazol-5-yl)-4,5-dimethyl-4,7-dihydrotetrazolo[1,5-a]pyrimidine-6-carboxamide] | 50 to 70% | 10 to 50 nM | < 50% | ≥ 100 nM
9 | CC1=C(C(=O)Nc2ccc3[nH]nc(-c4ccnc(N5CCN(CCN6CCN(CC7CCN(c8ccc9c(c8)C(=O)N(C8CCC(=O)NC8=O)C9=O)CC7)CC6)CC5)c4)c3c2)[C@@H](C)n2nnnc2N1C (stereo partly drawn) [compound 21, (7R)-N-(3-(2-(4-(2-(4-((1-(2-(2,6-dioxopiperidin-3-yl)-1,3-dioxoisoindolin-5-yl)piperidin-4-yl)methyl)piperazin-1-yl)ethyl)piperazin-1-yl)pyridin-4-yl)-1H-indazol-5-y1)-4,5,7-trimethyl-4,7-dihydrotetrazolo[1,5-a]pyrimidine-6-carboxamide] | 50 to 70% | ≥ 100 nM |  | ≥ 100 nM
10 | CC1=C(C(=O)Nc2ccc3[nH]nc(-c4ccnc(N5CC6(CN(CC7CCN(c8ccc9c(c8)C(=O)N(C8CCC(=O)NC8=O)C9=O)CC7)C6)C5)c4)c3c2)[C@@H](C)n2nnnc2N1C (stereo partly drawn) [compound 26, (7R)-N-(3-{2-[6-({1-[2-(2,6-dioxopiperidin-3-yl)-1,3-dioxo-2,3-dihydro-1H-isoindol-5-yl]piperidin-4-yl}methyl)-2,6-diazaspiro[3.3]heptan-2-yl]pyridin-4-yl}-1H-indazol-5-yl)-4,5,7-trimethyl-4H,7H-[1,2,3,4]tetrazolo[1,5-a]pyrimidine-6-carboxamide] | ≥ 70% | ≥ 100 nM |  | ≥ 100 nM
